Among the data in US10183950B2, “Thienopyrimidine inhibitors of atypical protein kinase C” (Cancer Research Technology Limited, priority 2011, dated 2019) are IC50 values, retold here.

The term IC50 denotes the concentration at which inhibition is half-maximal.

One assay addresses T1, full-length human PKCι (Homo sapiens, UniProt P41743).
T1 construct: Recombinant, full-length human PKCι expressed in Sf21 insect cells is also commercially available; purchased; host or cells: Sf21 insect cells
T1 sequence (P41743 1-596): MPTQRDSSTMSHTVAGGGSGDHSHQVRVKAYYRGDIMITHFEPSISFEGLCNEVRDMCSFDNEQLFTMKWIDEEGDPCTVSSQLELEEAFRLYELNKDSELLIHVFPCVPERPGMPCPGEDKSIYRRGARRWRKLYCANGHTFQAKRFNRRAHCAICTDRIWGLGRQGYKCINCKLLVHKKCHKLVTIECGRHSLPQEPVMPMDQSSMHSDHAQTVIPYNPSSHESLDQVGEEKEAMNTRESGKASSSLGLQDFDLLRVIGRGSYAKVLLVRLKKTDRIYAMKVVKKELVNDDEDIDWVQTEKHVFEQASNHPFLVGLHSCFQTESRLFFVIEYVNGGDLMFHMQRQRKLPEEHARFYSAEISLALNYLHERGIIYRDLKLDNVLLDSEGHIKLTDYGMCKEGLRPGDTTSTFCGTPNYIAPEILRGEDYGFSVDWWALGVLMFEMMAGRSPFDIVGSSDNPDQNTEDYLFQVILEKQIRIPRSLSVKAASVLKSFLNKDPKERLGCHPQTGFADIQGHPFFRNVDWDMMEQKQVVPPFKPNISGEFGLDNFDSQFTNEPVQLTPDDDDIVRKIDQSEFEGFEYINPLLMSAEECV
Briefly: PKCι IC50 IMAP fluorescence polarisation assay, full-length enzyme. The class given is biochemical. To be noted: full length PKCi at 15 μM ATP; read-out: IC50 in IMAP assay against full length PKCi. (In general: In fluorescence polarisation assays a small probe gives low polarisation when free and higher when bound to something large.)
On to `N[C@H](CNc1nc(-c2ccncc2)nc2c(C#CC3(O)CC3)csc12)Cc1ccccc1` [compound 532, 1-[4-((S)-2-Amino-3-phenyl-propylamino)-2-pyridin-4-yl-thieno[3,2-d]pyrimidin-7-ylethynyl]-cyclopropanol], for which the IC50 was < 0.1 µM.
Turning to `O=C(Nc1cc(-c2nc(N[C@@H]3CCNC3)c3sccc3n2)ccn1)c1ccco1` [compound 574, Furan-2-carboxylic acid {4-[4-((R)-pyrrolidin-3-ylamino)-thieno[3,2-d]pyrimidin-2-yl]-pyridin-2-yl}-amide], the IC50 lay in the range of 1 to 10 µM.
On to `c1cc(-c2nc(N[C@@H]3CCNC3)c3sccc3n2)cc(Nc2ccc(N3CCOCC3)cn2)n1` [compound 602, {2-[2-(5-Morpholin-4-yl-pyridin-2-ylamino)-pyridin-4-yl]-thieno[3,2-d]pyrimidin-4-yl}-(R)-pyrrolidin-3-yl-amine], for which the IC50 is 0.1 to 1 µM.
As for `N#Cc1csc2c(NC[C@@H](N)Cc3ccccc3)nc(-c3ccncc3)nc12` [compound 560, 4-((S)-2-Amino-3-phenyl-propylamino)-2-pyridin-4-yl-thieno[3,2-d]pyrimidine-7-carbonitrile], the IC50 was < 0.1 µM.
In the case of `COc1cccc(OC(C)C)c1-c1c(C)sc2c(NC[C@@H](N)Cc3ccccc3)nc(-c3ccncc3)nc12` [compound 440, (S)-N*1*-[7-(2-Isopropoxy-6-methoxy-phenyl)-6-methyl-2-pyridin-4-yl-thieno[3,2-d]pyrimidin-4-yl]-3-phenyl-propane-1,2-diamine], the IC50 fell in the range of 10 to 40 µM.
Turning to `N[C@H](CNc1nc(-c2ccnc(NC(=O)c3cccs3)c2)nc2ccsc12)Cc1ccc(C(F)(F)F)cc1` [compound 630, Thiophene-2-carboxylic acid (4-{4-[(S)-2-amino-3-(4-trifluoromethyl-phenyl)-propylamino]-thieno[3,2-d]pyrimidin-2-yl}-pyridin-2-yl)-amide], the IC50 was 10 to 40 µM.
The same measure, in the same setting: next, `CCC(C)(C)C(=O)Nc1csc2c(NC[C@@H](N)Cc3ccccc3)nc(-c3ccncc3)nc12` [compound 472, N-[4-((S)-2-Amino-3-phenyl-propylamino)-2-pyridin-4-yl-thieno[3,2-d]pyrimidin-7-yl]-2,2-dimethyl-butyramide]: 10 to 40 µM; `N[C@H](CNc1nc(-c2ccncc2Cl)nc2ccsc12)Cc1ccccc1` [compound 323, (S)-N*1*-[2-(3-Chloro-pyridin-4-yl)-thieno[3,2-d]pyrimidin-4-yl]-3-phenyl-propane-1,2-diamine]: 1 to 10 µM.
Same read-out and setting: for `C[C@H](Nc1cc(-c2nc(N[C@@H]3CCNC3)c3sccc3n2)ccn1)c1ccccc1` [compound 587, {2-[2-((S)-1-Phenyl-ethylamino)-pyridin-4-yl]-thieno[3,2-d]pyrimidin-4-yl}-(R)-pyrrolidin-3-yl-amine] the value was 0.1 to 1 µM.
As to `N[C@H](CNc1nc(-c2ccncc2)nc2c(Nc3ncccn3)csc12)Cc1ccccc1` [compound 488, N*4*-((S)-2-Amino-3-phenyl-propyl)-2-pyridin-4-yl-N*7*-pyrimidin-2-yl-thieno[3,2-d]pyrimidine-4,7-diamine], the IC50 was 0.1 to 1 µM.
For `Brc1csc2c(N[C@H]3CCNC3)nc(-c3ccncc3)nc12` [compound 344, (7-Bromo-2-pyridin-4-yl-thieno[3,2-d]pyrimidin-4-yl)-(S)-pyrrolidin-3-yl-amine], the IC50 was 1 to 10 µM.
Consider `Cc1c(Br)sc2c(N[C@@H]3CCNC3)nc(-c3ccncc3)nc12` [compound 340, (6-Bromo-7-methyl-2-pyridin-4-yl-thieno[3,2-d]pyrimidin-4-yl)-(R)-pyrrolidin-3-yl-amine], for which the IC50 lay within 0.1 to 1 µM.

The assay is the same for the next values; noted with them: full length PKCi at 15 μM ATP; read-out: IC50 in IMAP assay against full length PKCi (Activity).
`N[C@H](CNc1nc(-c2ccncc2)nc2sc3c(c12)CCCC3)Cc1ccc(O)cc1` [compound 55, 4-[(S)-2-Amino-3-(2-pyridin-4-yl-5,6,7,8-tetrahydro-benzo[4,5]thieno[2,3-d]pyrimidin-4-ylamino)-propyl]-phenol]: the IC50 lay within 1 to 10 µM.
Turning to `N[C@H](CNc1nc(-c2ccncc2)nc2sc3c(c12)CCCC3)Cc1ccccn1` [compound 58, (S)-3-Pyridin-2-yl-N*1*-(2-pyridin-4-yl-5,6,7,8-tetrahydro-benzo[4,5]thieno[2,3-d]pyrimidin-4-yl)-propane-1,2-diamine], the IC50 is 1 to 10 µM.

For the next assay, the target named is T2, kinase-domain human PKCι (Homo sapiens, UniProt P41743).
T2 construct: Recombinant, kinase-domain human PKCι is expressed and purified in-house; made in house
T2 sequence (P41743 254-522 limits assumed): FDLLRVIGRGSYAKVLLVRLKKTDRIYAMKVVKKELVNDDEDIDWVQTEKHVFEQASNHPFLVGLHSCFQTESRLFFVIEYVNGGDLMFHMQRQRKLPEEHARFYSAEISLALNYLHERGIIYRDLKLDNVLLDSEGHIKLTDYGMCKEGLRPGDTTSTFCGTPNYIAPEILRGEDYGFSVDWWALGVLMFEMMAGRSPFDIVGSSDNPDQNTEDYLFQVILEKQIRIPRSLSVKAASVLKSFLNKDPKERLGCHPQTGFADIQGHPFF
Briefly: PKCι IC50 IMAP fluorescence polarisation assay, kinase-domain enzyme. Type of assay: biochemical. The note with it: kinase domain PKCi at 2 μM ATP; read-out: IC50 in IMAP assay against kinase domain PKCi. As to the method: Assays are based on the ability of PKCι to phosphorylate a commercially available peptide substrate in vitro. […] Recombinant, full-length human PKCι expressed in Sf21 insect cells is also commercially available. Recombinant, kinase-domain human PKCι is expressed and purified in-house.
The procedure below explains how dose response curves for inhibitors of PKCι are obtained.
Compounds to be tested are dissolved in 100% DMSO. […] 1 μl is plated into 384 well black low-binding flat bottomed assay plates which are used immediately. Dilutions and additions of compound to assay plates are carried out using Matrix WellMate® and Matrix PlateMate® Plus liquid handling systems.
The final concentration of peptide substrate in the assay is 100 nM. […] Relevant controls are included, namely no compound and no enzyme. […] The reaction is allowed to incubate for 60 minutes at room temperature, before the reaction is stopped and developed by the addition of 20 μl IMAP™ development reagent (Molecular Devices). IMAP development reagent consists of 0.25% (v/v) IMAP progressive binding reagent, 17% (v/v) IMAP progressive binding buffer A and 3% (v/v) IMAP progressive binding buffer B. The plates are then incubated for 2 hours at room temperature before being read using an appropriate plate reader, for example a Molecular Devices HT Analyst or a BMG Pherastar.
With `Cc1csc2c(OC[C@H]3CCCN3)nc(-c3ccncc3)nc12` [compound 476, 7-methyl-2-pyridin-4-yl-4-((R)-1-pyrrolidin-2-ylmethoxy)-thieno[3,2-d]pyrimidine], the IC50 was in the range of 10 to 40 µM.
Still for that read-out and setting: for `Cc1csc2c(O[C@@H]3CCNC3)nc(-c3ccncc3)nc12` [compound 484, 7-Methyl-2-pyridin-4-yl-4-((R)-pyrrolidin-3-yloxy)-thieno[3,2-d]pyrimidine] the value was 1 to 10 µM.
Consider `Clc1cccc2sc3c(N4CCNCC4)nc(-c4ccncc4)nc3c12` [compound 387, 9-Chloro-4-piperazin-1-yl-2-pyridin-4-yl-benzo[4,5]thieno[3,2-d]pyrimidine], for which the IC50 was 0.1 to 1 µM.
Same read-out and setting: for `c1cnc2sc3c(N4CCCNCC4)nc(-c4ccncc4)nc3c2c1` [compound 377, 4-[1,4]Diazepan-1-yl-2-pyridin-4-yl-pyrido[3′,2′:4,5]thieno[3,2-d]pyrimidine] the value was 1 to 10 µM.
Same read-out and setting: for `CC(C)(C)c1ccc(-c2cc3nc(-c4ccncc4)nc(NCCN)c3s2)cc1` [compound 360, N*1*-[6-(4-tert-Butyl-phenyl)-2-pyridin-4-yl-thieno[3,2-d]pyrimidin-4-yl]-ethane-1,2-diamine] the value was 10 to 40 µM; for `C[C@H](N)CNc1nc(-c2ccncc2)nc2c1sc1cccc(Cl)c12` [compound 373, (S)-N*1*-(9-Chloro-2-pyridin-4-yl-benzo[4,5]thieno[3,2-d]pyrimidin-4-yl)-propane-1,2-diamine], 0.1 to 1 µM.

The same assay, now with this note: kinase domain PKCi at 2 μM ATP; read-out: IC50 in IMAP assay against kinase domain PKCi (Activity).
Regarding `Cc1n[nH]c(C)c1-c1nc(N2CCNCC2)c2c3c(sc2n1)CCCC3` [compound 190, 2-(3,5-Dimethyl-1H-pyrazol-4-yl)-4-piperazin-1-yl-5,6,7,8-tetrahydro-benzo[4,5]thieno[2,3-d]pyrimidine], the IC50 lay in the range of 0.1 to 1 µM.
As to `N[C@@H](COc1nc(-c2ccncc2)nc2sc3c(c12)CCCC3)Cc1cccc2ccccc12` [compound 173, (R)-1-Naphthalen-1-ylmethyl-2-(2-pyridin-4-yl-5,6,7,8-tetrahydro-benzo[4,5]thieno[2,3-d]pyrimidin-4-yloxy)-ethylamine], the IC50 is 1 to 10 µM.
Still for that read-out and setting: next, `c1cc(-c2nc(OC3CNC3)c3c4c(sc3n2)CCCC4)ccn1` [compound 152, 4-(Azetidin-3-yloxy)-2-pyridin-4-yl-5,6,7,8-tetrahydro-benzo[4,5]thieno[2,3-d]pyrimidine]: 1 to 10 µM; `N[C@@H](COc1nc(-c2ccncc2)nc2sc3c(c12)CCCC3)Cc1ccccc1` [compound 142, (R)-2-Phenyl-1-(2-pyridin-4-yl-5,6,7,8-tetrahydro-benzo[4,5]thieno[2,3-d]pyrimidin-4-yloxymethyl)-ethylamine]: 10 to 40 µM.
`N[C@@H](CNc1nc(-c2ccncc2)nc2sc3c(c12)CCCC3)Cc1c[nH]c2ccccc12` [compound 7, (R)-3-(1H-Indol-3-yl)-N*1*- (2-pyridin-4-yl-5,6,7,8-tetrahydro-benzo[4,5]thieno[2,3-d]pyrimidin-4-yl)-propane-1,2-diamine]: the half-maximal inhibitory concentration (IC50) is 1 to 10 µM.
On to `CC1CCc2c(sc3nc(-c4ccncc4)nc(NC[C@@H](C)N)c23)C1` (stereo partly drawn) [compound 23, (R)-N*1*-(7-Methyl-2-pyridin-4-yl-5,6,7,8-tetrahydro-benzo[4,5]thieno[2,3-d]pyrimidin-4-yl)-propane-1,2-diamine], for which the IC50 lay in the range of 1 to 10 µM.
